Assay results from PubChem BioAssay (NCI).
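Compound exposure: 48 hours, 5 concentrations, 96-well plates. GI50 is the concentration that inhibits growth by half. TGI: concentration producing complete growth inhibition.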

How the values were obtained:
Test in all cases: DTP human tumour cell line panel, 48 h
SK-OV-3 ovarian = tested on: SK-OV-3 ovarian
HCC-2998 colon = tested on: HCC-2998 colon
MALME-3M melanoma = tested on: MALME-3M melanoma
786-0 renal = tested on: 786-0 renal
MOLT-4 leukemia = tested on: MOLT-4 leukemia
SF-295 CNS = tested on: SF-295 CNS
ACHN renal = tested on: ACHN renal
NCI-H460 lung = tested on: NCI-H460 lung
M14 melanoma = tested on: M14 melanoma
KM12 colon = tested on: KM12 colon

Row | Structure (SMILES) | TGI (SK-OV-3 ovarian) [µM] | TGI (HCC-2998 colon) [µM] | TGI (MALME-3M melanoma) [µM] | TGI (786-0 renal) [µM] | TGI (MOLT-4 leukemia) [µM] | TGI (SF-295 CNS) [µM] | TGI (ACHN renal) [µM] | TGI (NCI-H460 lung) [µM] | GI50 (SK-OV-3 ovarian) [µM] | GI50 (HCC-2998 colon) [µM] | GI50 (MALME-3M melanoma) [µM] | GI50 (786-0 renal) [µM] | GI50 (MOLT-4 leukemia) [µM] | GI50 (M14 melanoma) [µM] | TGI (M14 melanoma) [µM] | GI50 (SF-295 CNS) [µM] | GI50 (ACHN renal) [µM] | GI50 (KM12 colon) [µM] | TGI (KM12 colon) [µM] | GI50 (NCI-H460 lung) [µM]
1 | O=[N+]([O-])c1cnn(C2=CNc3ccccc3N=C2)c1 | > 100 | > 100 | > 100 | > 100 | > 100 | > 100 | > 100 | > 100 |  |  |  |  |  |  |  |  |  |  |  | 
2 | COc1cc2c(=O)n(CCN)c3c4cc5c(cc4ccc3c2cc1OC)OCO5 | 12 | 2.47 | 2.2 | 1.97 | 0.863 | 4.08 | 1.52 | 1.25 | 1.24 | 1.08 | 0.692 | 0.464 | 0.0671 | 0.425 | 1.89 | 0.306 | 0.363 | 0.913 | 2.47 | 0.236
3 | CC(CCC(=O)O)C(=O)O (centres undefined) | > 100 | > 100 | > 100 | > 100 | > 100 | > 100 | > 100 | > 100 |  |  |  |  |  |  | > 100 |  |  |  | > 100 | 
4 | Nc1ccc(C(=O)CC(N)C(=O)O)cc1O (centres undefined) | > 100 | > 100 | > 100 | > 100 | > 100 | > 100 | > 100 | > 100 |  |  |  |  |  |  | > 100 |  |  |  | > 100 | 
5 | CCOc1cccc(/C=N/NC(=O)C(=O)Nc2cccc(C(F)(F)F)c2)c1O | > 100 | > 100 | 64.2 | 41.3 | 22 | 7.97 | 25.3 | 60.3 | 5.28 | 3.28 | 4.35 | 3.27 | 1.35 | 1.52 | 12.6 | 0.372 | 1.03 | 3 | > 100 | 0.808
6 | CCCOc1ccc2nc(NC(=O)OC)[nH]c2c1 |  |  | > 100 | > 100 | > 100 | > 100 | > 100 | > 100 | 0.262 | 0.232 | 2.72 | 0.47 | 0.426 | 0.14 | > 100 | 0.215 | 1.2 | 0.0974 | > 100 | 0.324
7 | Cc1cccc(-n2c(=S)[nH]c3c(sc(=O)n3-c3ccccc3C)c2=O)c1 | > 100 | > 100 | > 100 | > 100 | > 100 | > 100 | > 100 | > 100 |  |  |  |  |  |  | > 100 |  |  |  | > 100 | 
8 | COc1ccc(Cn2cc3c(c2)-c2oncc2CC3)cc1 | > 82.1 | 27.5 | 54.5 | > 100 | 22.2 | 35.9 | > 100 | 16.5 | 4.92 | 5.98 | 7.24 | 13.2 | 2.82 | 3.12 | 61.7 | 4.08 | 11.6 | 2.62 | 20.7 | 3.47
9 | COc1ccc(-c2oc3c(OC)c(OC)c(OC)c(OC)c3c(=O)c2OC)cc1OC | > 100 | > 100 | 68 | > 100 | > 100 | > 100 | > 100 | 57 |  |  |  |  |  |  | > 100 |  |  |  | > 100 | 
10 | COc1cc(C(=O)Nc2cc3c(cc2Oc2cc(C)cc(C)c2)C(=O)N(C)[C@@H](CC(=O)N(C)O)C(=O)N3)c(Br)c(OC)c1OC | 0.00955 | < 0.00333 | < 0.00333 | 0.0429 | < 0.00333 | 0.00898 | 0.374 | 0.00425 | < 0.00333 | < 0.00333 | < 0.00333 | 0.00824 | < 0.00333 | < 0.00333 | 0.0101 | < 0.00333 | 0.0111 | < 0.00333 | 0.0394 | < 0.00333
11 | NC(=S)NNc1c([N+](=O)[O-])cnn(-c2ccccc2)c1=O | 36 | 33 | 33.7 | 35.1 | 62.5 | 29.4 | 32.7 | 34 |  |  |  |  |  |  | 28.4 |  |  |  | 28.2 | 
12 | C=C1C(=O)O[C@H]2[C@H]1CC/C(COC(=O)c1cc3cc(Cl)ccc3[nH]1)=C\CC[C@@]1(C)O[C@@H]21 | 21.8 | 2.85 | 3.33 | 2.91 | 3.37 | 16.5 | 2.75 | 3.53 | 10.2 | 1.4 | 1.63 | 1.51 | 0.557 | 1.47 | 3.4 | 3.18 | 1.35 | 2.15 | 6.92 | 1.72
13 | C/C(=N\N(c1ccccc1)c1ccccc1)c1c(O)cc(C)oc1=O | > 100 | > 100 | > 100 | > 100 | > 100 | > 100 | > 100 | > 100 |  |  |  |  |  |  | > 100 |  |  |  | > 100 | 
14 | Cc1c(C(=O)NCCN2CCOCC2)cn2ncnc(Oc3ccc(NC(=O)Nc4ccc(Cl)c(C(F)(F)F)c4)cc3)c12 |  | 3.71 | 2.76 | 3.33 | 2.6 | 3.34 |  | 2.8 |  | 2.04 | 1.09 | 1.67 | 0.433 | 1.08 | 2.55 | 1.77 |  |  |  | 1.16
15 | CCOP(=O)(OCC)OC(C#N)c1ccc(-c2ccccc2)cc1 (centres undefined) | 78.5 | 81.7 | 41 | 31.6 | 29.9 | > 100 | > 100 | 36.3 |  |  |  |  |  |  | 33.3 |  |  |  | 33.2 | 
16 | COc1ccc(/C=C\c2cc(OC)c(O[Si](C)(C)C(C)(C)C)c(OC)c2)cc1 | > 100 | > 100 | > 100 | > 100 | 38.8 |  | > 100 | > 100 |  |  |  |  |  |  | > 100 |  |  |  | > 100 | 
17 | OCCNc1ncnc2c1ncn2Cc1cccc(COc2cccc(OCc3cccc(Cn4cnc5c(NCCO)ncnc54)c3)c2)c1 | > 100 | 33.6 | 38.3 | 30.3 | 32.4 | 31.8 | 43.2 | 29 | > 100 | 15.1 | 17.2 | 15.5 | 11.8 | 17.2 | 33.3 | 13 | 20.7 | 13.3 | 38.8 | 15.1
